“Also recorded” adds a separate entry of the source.
Test system: auto-antibody titers (anti-dsDNA, anti-histone, anti-Sm/RNP, anti-RiboP)
Assay: DBA/1 pristane lupus model, auto-antibody titers by ELISA
Assay type: in vivo, mouse
Conditions: DBA/1 mice, once-a-day oral dosing
Protocol: FIG. 1A through FIG. 1D show results of treatment with ER-888840 (5-((3R,5S)-3-amino-5-methylpiperidin-1-yl)quinoline-8-carbonitrile) in the DBA/1 pristane model. Figure Legend: Female DBA/1 mice at 10 weeks of age were given an intraperitoneal injection of 0.5 ml pristane or PBS. At 18 weeks of age animals were bled for pre-dosing baseline auto-antibody titers. Once-a-day oral dosing with Vehicle (Veh; 0.5% methyl-cellulose) or 11 mg/kg, 33 mg/kg, or 100 mg/kg of ER-888840 was begun at 18 weeks of age, 8 weeks after pristane injection and continued for 12 weeks of treatment. At the end of the experiment plasma samples were taken and anti-dsDNA and anti-histone (FIG. 1A) and anti-Sm/RNP and anti-RiboP (FIG. 1B) titers were determined by ELISA. (FIG. 1C) The expression of IFN-regulated genes in whole blood was measured by a qPCR panel after 8 weeks of treatment. […] (FIG. 1D) The interferon scores of individual mice were calculated (see Pharmacology Materials and Methods section for details regarding IFN score calculation) and groups compared using the Mann-Whitney t test.
FIG. 2A through 2E show results of treatment with ER-888840 in the DBA/1 pristane model. […] At the end of the experiment plasma was taken and anti-dsDNA (FIG. 2A), anti-RiboP (FIG. 2B), anti-histone (FIG. 2C) and anti-Sm/RNP (FIG. 2D) titers were determined by ELISA. […]

In the case of `C[C@H]1C[C@@H](N)CN(c2ccc(C#N)c3ncccc23)C1` [ER-888840, 5-((3R,5S)-3-amino-5-methylpiperidin-1-yl)quinoline-8-carbonitrile], the “effect on auto-antibody specificities” value is reported as “suppressed multiple auto-antibody specificities; also recorded: limited the production of several autoantibody specificities”.

Source: patent US9663486B2, “Selectively substituted quinoline compounds” (EISAI R&D MANAGEMENT CO., LTD., priority 2013, dated 2017)
